Experimental data from the OPERA property sets (Mansouri et al. 2018).

Structure (SMILES)	logP
CCCCCCCCCCCCC(C)c1ccccc1 (configuration not stated)	9.29
CCCCCCCCCCCC(C)c1ccccc1 (configuration not stated)	8.77
CCCCCCCCCCCc1ccccc1	8.14
CCCCCCCCC(CCCCC)c1ccccc1 (configuration not stated)	9.16
CCCCCCCCC(C)c1ccccc1 (configuration not stated)	7.06
CCCCCCCCCCC(CCC)c1ccccc1 (configuration not stated)	9.25
CCCCCCCCCCCCCc1ccccc1	9.36
CCCCCCCCCC(C)c1ccccc1 (configuration not stated)	7.63
CCCCCCCCCCCCc1ccccc1	8.65
CCCCCCCCC(CCCC)c1ccccc1 (configuration not stated)	8.56
CCCCCCCCCCC(C)c1ccccc1 (configuration not stated)	8.19
CCCCCCCC(CCCCC)c1ccccc1 (configuration not stated)	8.56
CCCCCCCCCC(CCCC)c1ccccc1 (configuration not stated)	9.16

Second part, the molecule after the results:

logP	Structure (SMILES)
7.53	CCCCCCCCC(CC)c1ccccc1 (configuration not stated)
8.07	CCCCCCCCC(CCC)c1ccccc1 (configuration not stated)
8.01	CCCCCCCC(CCCC)c1ccccc1 (configuration not stated)
8.65	CCCCCCCCCCC(CC)c1ccccc1 (configuration not stated)
9.29	CCCCCCCCCCCC(CC)c1ccccc1 (configuration not stated)
8.01	CCCCCCC(CCCCC)c1ccccc1 (configuration not stated)
7.59	CCCCCCCC(CCC)c1ccccc1 (configuration not stated)
6.9	CCCCCC(CCCC)c1ccccc1 (configuration not stated)
7	CCCCCCC(CCC)c1ccccc1 (configuration not stated)
8.1	CCCCCCCCCC(CC)c1ccccc1 (configuration not stated)
8.62	CCCCCCCCCC(CCC)c1ccccc1 (configuration not stated)
7.45	CCCCCCC(CCCC)c1ccccc1 (configuration not stated)
7	CCCCCCCC(CC)c1ccccc1 (configuration not stated)
7.45	CCCCCC(CCCCC)c1ccccc1
